{
  "source": "patent US12559750B2",
  "about": "“Methods and compositions for treatment of polycystic kidney disease” (Regulus Therapeutics Inc., priority 2021, dated 2026)",
  "key": {"Pcy/DBA mice": {"test_system": "Pcy/DBA mice", "test": "Efficacy in Pcy/DBA mouse model of PKD, alone and with tolvaptan;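 also: dosing began at 6 weeks of age, with endpoints collected 7 days after the last dose and PBS-injected wild-type DBA/2J mice as the normal reference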", "type": "in vivo"}, "AMPA glutamate receptor": {"biological_target": "AMPA glutamate receptor", "test": "Off-target panel, ligand binding (RGLS4326)", "protocol": "To identify potential candidates for off-target pharmacology, a panel of 174 targets including G-protein coupled receptors, transporters, ion channels, nuclear receptors, and cytokine receptors was evaluated in vitro for possible interactions with RGLS4326. […] AMPA receptors are ion channels on excitatory synapses in the CNS that mediate fast excitatory neurotransmission and, therefore, are key components of all neuronal networks. Such an interaction with the AMPA receptor could explain the CNS-mediated findings observed at high doses of RGLS4326 in nonclinical toxicology models."}, "miR-17": {"test_system": "miR-17", "conditions": "mIMCD3, mouse, Normal; value reported by Lee et al., Nat. Commun., 2019; read-out: miR-17 PD-Sig (EC50); cited from earlier work"}, "[1]": {"conditions": "RG-NG-1015 0.2 mg/kg SC Q2W, 17 weeks"}, "[2]": {"conditions": "RG-NG-1015 1 mg/kg SC Q2W + 0.3% Tolvaptan in chow"}, "[3]": {"conditions": "RG-NG-1015 1 mg/kg SC Q2W, 17 weeks"}, "[4]": {"conditions": "RG-NG-1015 5 mg/kg SC Q2W + 0.3% Tolvaptan in chow"}, "[5]": {"conditions": "RG-NG-1015 5 mg/kg SC Q2W, 17 weeks"}, "[6]": {"conditions": "RG-NG-1015 12.5 mg/kg SC QW, 17 weeks"}, "[7]": {"conditions": "RG-NG-1015 25 mg/kg SC Q2W + 0.3% Tolvaptan in chow"}, "[8]": {"conditions": "RG-NG-1015 25 mg/kg SC Q2W, 17 weeks"}, "[9]": {"conditions": "RG-NG-1015 50 mg/kg SC Q4W, 17 weeks"}},
  "data": [
    {"sequence": "ASGSCMAFCFUFUMUSAS [RG-NG-1015]", "values": [
      {"measurement": "Mean Cystic Area", "setting": "Pcy/DBA mice; [1]", "result": 47.09, "unit": "%"},
      {"measurement": "Mean Cystic Area % Inhibition", "setting": "Pcy/DBA mice; [1]", "result": 24.8, "unit": "%"},
      {"measurement": "Mean KW/BW", "setting": "Pcy/DBA mice; [1]", "result": 78, "unit": "mg/g"},
      {"measurement": "Mean KW/BW % Inhibition", "setting": "Pcy/DBA mice; [1]", "result": 18.7, "unit": "%"},
      {"measurement": "Mean Urine Ngal/Cr", "setting": "Pcy/DBA mice; [1]", "result": 18.38, "unit": "mg/mg"},
      {"measurement": "Mean Urine Ngal/Cr % Inhibition", "setting": "Pcy/DBA mice; [1]", "result": 13.5, "unit": "%"},
      {"measurement": "Mean Cystic Area", "setting": "Pcy/DBA mice; [2]", "result": 41.91, "unit": "%"},
      {"measurement": "Mean Cystic Area % Inhibition", "setting": "Pcy/DBA mice; [2]", "result": 34.3, "unit": "%"},
      {"measurement": "Mean Cystic Area Bliss Analysis", "setting": "Pcy/DBA mice; [2]", "result": "<Additive"},
      {"measurement": "Mean KW/BW", "setting": "Pcy/DBA mice; [2]", "result": 47.1, "unit": "mg/g"},
      {"measurement": "Mean KW/BW % Inhibition", "setting": "Pcy/DBA mice; [2]", "result": 62.0, "unit": "%"},
      {"measurement": "Mean KW/BW Bliss Analysis", "setting": "Pcy/DBA mice; [2]", "result": "Synergistic"},
      {"measurement": "Mean Urine Ngal/Cr", "setting": "Pcy/DBA mice; [2]", "result": 11.16, "unit": "mg/mg"},
      {"measurement": "Mean Urine Ngal/Cr % Inhibition", "setting": "Pcy/DBA mice; [2]", "result": 49.8, "unit": "%"},
      {"measurement": "Mean Urine Ngal/Cr Bliss Analysis", "setting": "Pcy/DBA mice; [2]", "result": "<Additive"},
      {"measurement": "Mean Cystic Area", "setting": "Pcy/DBA mice; [3]", "result": 50.58, "unit": "%"},
      {"measurement": "Mean Cystic Area % Inhibition", "setting": "Pcy/DBA mice; [3]", "result": 18.4, "unit": "%"},
      {"measurement": "Mean KW/BW", "setting": "Pcy/DBA mice; [3]", "result": 82.4, "unit": "mg/g"},
      {"measurement": "Mean KW/BW % Inhibition", "setting": "Pcy/DBA mice; [3]", "result": 12.5, "unit": "%"},
      {"measurement": "Mean Urine Ngal/Cr", "setting": "Pcy/DBA mice; [3]", "result": 15.18, "unit": "mg/mg"},
      {"measurement": "Mean Urine Ngal/Cr % Inhibition", "setting": "Pcy/DBA mice; [3]", "result": 29.6, "unit": "%"},
      {"measurement": "Mean Cystic Area", "setting": "Pcy/DBA mice; [4]", "result": 37.47, "unit": "%"},
      {"measurement": "Mean Cystic Area % Inhibition", "setting": "Pcy/DBA mice; [4]", "result": 42.5, "unit": "%"},
      {"measurement": "Mean Cystic Area Bliss Analysis", "setting": "Pcy/DBA mice; [4]", "result": "<Additive"},
      {"measurement": "Mean KW/BW", "setting": "Pcy/DBA mice; [4]", "result": 45.6, "unit": "mg/g"},
      {"measurement": "Mean KW/BW % Inhibition", "setting": "Pcy/DBA mice; [4]", "result": 64.1, "unit": "%"},
      {"measurement": "Mean KW/BW Bliss Analysis", "setting": "Pcy/DBA mice; [4]", "result": "Synergistic"},
      {"measurement": "Mean Urine Ngal/Cr", "setting": "Pcy/DBA mice; [4]", "result": 5.84, "unit": "mg/mg"},
      {"measurement": "Mean Urine Ngal/Cr % Inhibition", "setting": "Pcy/DBA mice; [4]", "result": 76.6, "unit": "%"},
      {"measurement": "Mean Urine Ngal/Cr Bliss Analysis", "setting": "Pcy/DBA mice; [4]", "result": "Additive"},
      {"measurement": "Mean Cystic Area", "setting": "Pcy/DBA mice; [5]", "result": 44.58, "unit": "%"},
      {"measurement": "Mean Cystic Area % Inhibition", "setting": "Pcy/DBA mice; [5]", "result": 29.4, "unit": "%"},
      {"measurement": "Mean KW/BW", "setting": "Pcy/DBA mice; [5]", "result": 70, "unit": "mg/g"},
      {"measurement": "Mean KW/BW % Inhibition", "setting": "Pcy/DBA mice; [5]", "result": 29.9, "unit": "%"},
      {"measurement": "Mean Urine Ngal/Cr", "setting": "Pcy/DBA mice; [5]", "result": 14.65, "unit": "mg/mg"},
      {"measurement": "Mean Urine Ngal/Cr % Inhibition", "setting": "Pcy/DBA mice; [5]", "result": 32.3, "unit": "%"},
      {"measurement": "Mean Cystic Area", "setting": "Pcy/DBA mice; [6]", "result": 44.99, "unit": "%"},
      {"measurement": "Mean Cystic Area % Inhibition", "setting": "Pcy/DBA mice; [6]", "result": 28.7, "unit": "%"},
      {"measurement": "Mean KW/BW", "setting": "Pcy/DBA mice; [6]", "result": 74.5, "unit": "mg/g"},
      {"measurement": "Mean KW/BW % Inhibition", "setting": "Pcy/DBA mice; [6]", "result": 23.6, "unit": "%"},
      {"measurement": "Mean Urine Ngal/Cr", "setting": "Pcy/DBA mice; [6]", "result": 8.82, "unit": "mg/mg"},
      {"measurement": "Mean Urine Ngal/Cr % Inhibition", "setting": "Pcy/DBA mice; [6]", "result": 61.6, "unit": "%"},
      {"measurement": "Mean Cystic Area", "setting": "Pcy/DBA mice; [7]", "result": 38.61, "unit": "%"},
      {"measurement": "Mean Cystic Area % Inhibition", "setting": "Pcy/DBA mice; [7]", "result": 40.4, "unit": "%"},
      {"measurement": "Mean Cystic Area Bliss Analysis", "setting": "Pcy/DBA mice; [7]", "result": "<Additive"},
      {"measurement": "Mean KW/BW", "setting": "Pcy/DBA mice; [7]", "result": 42.2, "unit": "mg/g"},
      {"measurement": "Mean KW/BW % Inhibition", "setting": "Pcy/DBA mice; [7]", "result": 68.9, "unit": "%"},
      {"measurement": "Mean KW/BW Bliss Analysis", "setting": "Pcy/DBA mice; [7]", "result": "Synergistic"},
      {"measurement": "Mean Urine Ngal/Cr", "setting": "Pcy/DBA mice; [7]", "result": 5.04, "unit": "mg/mg"},
      {"measurement": "Mean Urine Ngal/Cr % Inhibition", "setting": "Pcy/DBA mice; [7]", "result": 80.6, "unit": "%"},
      {"measurement": "Mean Urine Ngal/Cr Bliss Analysis", "setting": "Pcy/DBA mice; [7]", "result": "Additive"},
      {"measurement": "Mean Cystic Area", "setting": "Pcy/DBA mice; [8]", "result": 46.46, "unit": "%"},
      {"measurement": "Mean Cystic Area % Inhibition", "setting": "Pcy/DBA mice; [8]", "result": 26.0, "unit": "%"},
      {"measurement": "Mean KW/BW", "setting": "Pcy/DBA mice; [8]", "result": 66.9, "unit": "mg/g"},
      {"measurement": "Mean KW/BW % Inhibition", "setting": "Pcy/DBA mice; [8]", "result": 34.3, "unit": "%"},
      {"measurement": "Mean Urine Ngal/Cr", "setting": "Pcy/DBA mice; [8]", "result": 11.36, "unit": "mg/mg"},
      {"measurement": "Mean Urine Ngal/Cr % Inhibition", "setting": "Pcy/DBA mice; [8]", "result": 48.8, "unit": "%"},
      {"measurement": "Mean Cystic Area", "setting": "Pcy/DBA mice; [9]", "result": 47.35, "unit": "%"},
      {"measurement": "Mean Cystic Area % Inhibition", "setting": "Pcy/DBA mice; [9]", "result": 24.3, "unit": "%"},
      {"measurement": "Mean KW/BW", "setting": "Pcy/DBA mice; [9]", "result": 67.1, "unit": "mg/g"},
      {"measurement": "Mean KW/BW % Inhibition", "setting": "Pcy/DBA mice; [9]", "result": 34.0, "unit": "%"},
      {"measurement": "Mean Urine Ngal/Cr", "setting": "Pcy/DBA mice; [9]", "result": 9.32, "unit": "mg/mg"},
      {"measurement": "Mean Urine Ngal/Cr % Inhibition", "setting": "Pcy/DBA mice; [9]", "result": 59.1, "unit": "%"}
    ]},
    {"sequence": "ASGSCMAFCFUFUMUSGS [RGLS4326, reference compound]", "values": [
      {"measurement": "50% inhibitory concentration (IC50) based on ligand binding", "setting": "AMPA glutamate receptor", "result": 14.2, "unit": "µg/mL"},
      {"measurement": "IC50", "setting": "AMPA glutamate receptor; read-out: 50% inhibitory concentration (IC50) based on ligand binding", "result": 4.6, "unit": "µM"},
      {"measurement": "EC50", "setting": "miR-17", "result": 0.0772, "unit": "µM"}
    ]}
  ]
}
